Source: patent publication US9683014B2, “Dipeptide mimetics of NGF and BDNF neurotrophins” (UCHREZHDENIE ROSSIISKOI AKADEMII MEDITSYNSKIKH NAUK …, priority 2009, dated 2017)
Numbered stars: 1 amine (or outer) side, 2 acyl side, 3 side chain; on linkers, the order of the positions; unused ones are H or OH. Bridge positions count the residues as written; N and C are the ends. Square brackets hold non-standard residues; d marks the D form. Peptide text beside a SMILES is read from it. I, II: the chains in the order shown. Ethylenediamine = C(CN[*:2])N[*:1]; Suc = O=C(CCC(=O)[*:2])[*:1]; Ahx = NCCCCCC(=O)O

Tests used:
[1] = system: Balb/c mice; test: Behavioral despair test according to Porsolt; format: in vivo, mouse; conditions: GBK-201 at 0.01 and 0.1 mg/kg i.p., 24 h before the test
Procedure: In order to detect a potential antidepressant activity of the peptide BDNF mimetics, the behavioral despair test was used in the original version (Porsolt R. D., Anton G., Blavet N., Jalfre M. Behavioral despair in rats: a new model sensitive to antidepressants. European Journal of Pharmacology, 1978, 47, 379-391).
For these experiments, male Balb/c mice weighing 20-22 g were used. On day 1, the animals were placed in a narrow vessel filled with water at 22° C. for 10 min. 60 min later a test compound was administered intraperitoneally (GSB-106 at 1 mg/kg, GBK-108 and GBK-201 at 0.01, 0.1, 1.0, 10.0 mg/kg). 24 hours later the animals were placed again in the same conditions to record the retention time of the characteristic immobile posture (abandoning any active defensive and exploratory behavior) for a 5 min test period. Imipramine was administered 60 min prior to the 5 min test period (on day 2). The control groups were treated with distilled water. Each experimental group comprised at least 6 mice.

[2] = system: PC12 cells; test: Differentiation of PC12 cells and modulation of the differentiation-inducing activity of NGF; format: cell-based, rat; conditions: for distance of branching points of the longest processes from the cell body / length of the longest processes: peptide + NGF (GK-3 10^−6 M, GK-4 10^−7 M, GK-5 10^−6 M)
Procedure: The rat adrenal […] pheochromocytoma cell line PC12 was obtained from the Cell Culture Museum, RAN Institute of Molecular Genetics. The immortalized mouse hippocampal cell line HT-22 was a gift from Prof. F. Viegant, Utrecht University, the Netherlands.
At the time of plating, either NGF (100 ng/ml, positive control) or a test compound was added to a final concentration of 10^−5 to 10^−9 M in the growth medium. Thereafter, the test peptides and NGF were added to the medium every 24 hours in one series of experiments and every 48 hours in another series, for a total of 6 days. The extent of cell differentiation was estimated on the basis of the shape and size of the cells and the number and length of the processes.
NGF was used as a positive control at a final concentration of 100 ng/ml.

[3] = system: Hsp32; test: Western blot of Hsp32 in HT-22 cells; format: cell-based, mouse; conditions: for amount of Hsp32: 24 h after addition, GK-1, GK-2 10^−8 and 10^−5 M, GK-3 10^−6 M, GK-4 10^−7 M, GK-5 10^−6 M
Procedure: (§1) The amount of Hsp70, Hsp32 and pTrkA was determined in the cytoplasmic fraction of HT-22 neuronal cells. For heat shock proteins, a test compound was added to the culture 24 hours prior to testing, before the cells were washed off the culture liquid with PBS. For pTrkA, a test compound was added to the culture immediately prior to the cell lysis just for 1 or 2 min, before the cells were washed off the culture liquid with PBS. Then the cells were mixed with the lysis buffer (50 mM Tris-HCl, 5 mM EDTA, 1 mM DTT, 1% Triton X-100, pH 7.5) at 4° C. and lysed for 5 min, then scraped off, transferred into a 1.5 ml centrifuge tube and centrifuged at 13000 rpm and 4° C. for 10 min. The supernatant containing cytosolic proteins was assayed by electrophoresis and immunoblotting. Proteins were separated on a 10% polyacrylamide gel (PAAG) and transferred from PAAG onto a PVDF membrane by electroelution for 45 min. Western blots were pre-incubated for 1 h in a TBST solution containing 1% Tween-20 and supplemented with 5% (w/v) skim milk. Western blots were then incubated with the primary polyclonal anti-Hsp32 antibody diluted 1:1000 or primary monoclonal anti-Hsp70 antibody diluted 1:1000 or primary monoclonal anti-phosphorylated tyrosine kinase A antibody diluted 1:1000 for 1 hour. Then the blots were washed and incubated with a secondary antibody conjugated to horseradish peroxidase (diluted 1:2000) for 1 hour. The detection of Hsp70, Hsp32 and pTrkA was carried out by the ECL reaction on a Kodak film.

[4] = system: HT-22 cells; test: Oxidative stress (H2O2) model in cultured HT-22 cells (MTT test); format: cell-based, mouse; conditions: for neuronal survival under oxidative stress: added 24 hours prior to the stress exposure, 10^−8 M to 10^−5 M; for Optical density (MTT): 24 h before H2O2
Procedure: To induce an oxidative stress, the cells were placed in a growth medium containing 5% FBS, then a freshly prepared H2O2 solution was added to a final concentration of 1.5 mM and incubated for 30 min at 37° C. and 5% CO2. Thereafter, the medium was replaced with a new one and the cells were cultured for 4 h under the same conditions.
The determination of cell viability was carried out by MTT test. […] At the end of an experiment the growth medium was replaced with an MTT solution (0.5 mg/ml) and incubated for 30 min at 37° C. and 5% CO2. The MTT solution was then removed from the wells and DMSO was added to dissolve the formazan precipitate. Then the optical density was measured using a Multiscan (Thermo) spectrophotometer at a wavelength of 600 nm.

[5] = system: Hsp70; test: Western blot of Hsp70 in HT-22 cells; format: cell-based, mouse; conditions: for amount of Hsp70: 24 h after addition, GK-1, GK-2 10^−8 and 10^−5 M, GK-3 10^−6 M, GK-4 10^−7 M, GK-5 10^−6 M
Procedure: as §1

[6] = target: T1, tyrosine kinase A (TrkA) (Mus musculus, UniProt Q3UFB7); test: Tyrosine kinase A phosphorylation in HT-22 cells (Western blot); format: cell-based; conditions: first minute of exposure
T1 construct: phosphorylation of tyrosine kinase A in cultured hippocampal neuronal cell line HT22; endogenous in cells; host or cells: HT-22 hippocampal neuronal cell line
Procedure: as §1

[7] = system: PC12 cell line; test: Cellular model of Parkinson's disease (MPTP, MTT test); format: cell-based, rat; conditions: added 24 hours prior to MPTP 1 mM
Procedure: To produce a model for Parkinson's disease, MPTP was used at a final concentration of 1 mM (Shimoke K., Chiba H. Nerve growth factor prevents 1-methyl-[…]-1,2,3,6-tetrahydropyridine-induced cell death via the Akt pathway by suppressing caspase-3-like activity using PC12 cells: relevance to therapeutic application for Parkinson's disease. J. Neurosci. Res. 2001, 63, 402-409). MPTP was added to the cell growth medium containing 1% FBS at 24 hours after passage. The peptides were added to the cell growth medium concurrently with MPTP or 24 h before MPTP. Cell viability was determined at 24 h using an MTT test.

[8] = system: HT-22 cells; conditions: added 24 hours prior to glutamate
Procedure: The determination of cell viability was carried out by MTT test. MTT is a water soluble tetrazolium salt of yellow color which readily permeates cells. In living cells, MTT is converted into water insoluble formazan crystals of violet color. At the end of an experiment the growth medium was replaced with an MTT solution (0.5 mg/ml) and incubated for 30 min at 37° C. and 5% CO2. The MTT solution was then removed from the wells and DMSO was added to dissolve the formazan precipitate. Then the optical density was measured using a Multiscan (Thermo) spectrophotometer at a wavelength of 600 nm.

[9] = GK-1 10^−5 M added 30 minutes before GK-2

T1 sequence (Q3UFB7 34-799): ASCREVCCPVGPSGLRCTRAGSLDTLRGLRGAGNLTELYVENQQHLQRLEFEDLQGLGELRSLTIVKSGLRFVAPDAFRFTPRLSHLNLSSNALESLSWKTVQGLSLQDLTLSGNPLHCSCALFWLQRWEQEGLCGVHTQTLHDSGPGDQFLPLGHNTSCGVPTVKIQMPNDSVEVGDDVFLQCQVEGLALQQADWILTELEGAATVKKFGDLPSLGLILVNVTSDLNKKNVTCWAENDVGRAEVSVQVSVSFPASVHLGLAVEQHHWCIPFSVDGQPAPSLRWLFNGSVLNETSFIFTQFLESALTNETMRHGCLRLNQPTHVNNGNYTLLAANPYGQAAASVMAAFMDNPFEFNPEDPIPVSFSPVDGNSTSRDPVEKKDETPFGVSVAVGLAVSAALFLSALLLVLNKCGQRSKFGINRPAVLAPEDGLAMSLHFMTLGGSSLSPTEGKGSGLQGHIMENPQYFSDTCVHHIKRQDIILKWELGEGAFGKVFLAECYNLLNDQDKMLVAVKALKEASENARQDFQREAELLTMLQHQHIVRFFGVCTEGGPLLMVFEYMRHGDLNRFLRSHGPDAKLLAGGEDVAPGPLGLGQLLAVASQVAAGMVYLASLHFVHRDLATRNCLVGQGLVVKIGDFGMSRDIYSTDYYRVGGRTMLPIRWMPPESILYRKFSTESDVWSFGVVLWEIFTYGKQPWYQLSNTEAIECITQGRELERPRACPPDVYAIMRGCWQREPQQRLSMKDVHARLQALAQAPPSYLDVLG

| SMILES | amount of Hsp32 [3] | neuronal survival under oxidative stress [4] | amount of Hsp70 [5] | level of phosphorylated tyrosine kinase A [6] | protective effect against MPTP [7] | distance of branching points of the longest processes from the cell body [2] | length of the longest processes [2] | other results |
| --- | --- | --- | --- | --- | --- | --- | --- | --- |
| CSCC[C@H](NC(=O)[C@H](CC(=O)O)NC(C)=O)C(N)=O [GBK-201, N-acetyl-aspartyl-methionine amide] (Ac-Asp-Met-NH2) |  |  |  |  |  |  |  | immobility time [1]: increased the immobility time |
| NCCCC[C@H](NC(=O)[C@H](CCC(=O)O)NC(=O)CCC(=O)O)C(N)=O [GK-1, N-monosuccinyl-glutamyl-lysine amide] (Suc-Glu-Lys-NH2) | no effect | impaired the neuronal survival | no effect | decreased |  |  |  | decrease of the differentiation-promoting effect of NGF ([2]; GK-1 10^−5 M, counting differentiated and undifferentiated cells): 50%; amount of Hsp32 induced by GK-2 [3, 9]: no increase; effect on the neuroprotective effect of GK-2 [4, 9]: eliminated the neuroprotective effect of GK-2; amount of Hsp70 induced by GK-2 [5, 9]: no increase |
| NCCCC[C@H](NC(=O)[C@H](CCC(=O)O)NC(=O)CCC(=O)O)C(=O)NCCCCCC(=O)NCCCNC(=O)CCCCCNC(=O)[C@H](CCCCN)NC(=O)[C@H](CCC(=O)O)NC(=O)CCC(=O)O [GK-2a, bis-(N-monosuccinyl-glutamyl-lysyl-6-aminohexanoic acid) trimethylenediamide] |  | improved the neuronal survival |  |  | protective effect |  |  | Optical density (MTT) ([4]; Table 1.5, 10^−5M, control 0.1275 ± 0.021, H2O2 0.087 ± 0.006): 0.108 ± 0.019^; Optical density (MTT) ([4]; Table 1.5, 10^−6M, control 0.1275 ± 0.021, H2O2 0.087 ± 0.006): 0.429 ± 0.02; Optical density (MTT) ([4]; Table 1.5, 10^−7M, control 0.1275 ± 0.021, H2O2 0.087 ± 0.006): 0.449 ± 0.024; Optical density (MTT) ([4]; Table 1.5, 10^−8M, control 0.1275 ± 0.021, H2O2 0.087 ± 0.006): 0.106 ± 0.028 |
| NCCCC[C@H](NC(=O)[C@H](CCC(=O)O)NC(=O)CCC(=O)O)C(=O)NCCCCCNC(=O)[C@H](CCCCN)NC(=O)[C@H](CCC(=O)O)NC(=O)CCC(=O)O [GK-2b, bis-(N-monosuccinyl-glutamyl-lysine)pentamethylenediamide] |  | improved the neuronal survival |  |  |  |  |  |  |
| NCCCC[C@H](NC(=O)[C@H](CCC(=O)O)NC(=O)CCC(=O)O)C(=O)NCCNC(=O)[C@H](CCCCN)NC(=O)[C@H](CCC(=O)O)NC(=O)CCC(=O)O [GK-2e, bis-(N-monosuccinyl-glutamyl-lysine)ethylenediamide] (I: Suc-Glu-Lys / II: Suc-Glu-Lys; linker I:C-II:C via Ethylenediamine) |  | improved the neuronal survival |  |  |  |  |  |  |
| CC(=O)N[C@@H](CCCCN)C(=O)N[C@@H](CCC(=O)O)C(N)=O [GK-3, N-acetyl-lysyl-glutamic acid amide] (Ac-Lys-Glu-NH2) | small increase | improved the neuronal survival | no effect on Hsp70 | increased | protective effect | 25 μm | not significantly different | Optical density (MTT) ([4]; Table 1.6, 10^−5M, control 0.111 ± 0.009, H2O2 0.093 ± 0.004): 0.109 ± 0.019; Optical density (MTT) ([4]; Table 1.6, 10^−6M, control 0.111 ± 0.009, H2O2 0.093 ± 0.004): 0.110 ± 0.014^; Optical density (MTT) ([4]; Table 1.6, 10^−7M, control 0.111 ± 0.009, H2O2 0.093 ± 0.004): 0.099 ± 0.014; Optical density (MTT) ([4]; Table 1.6, 10^−8M, control 0.111 ± 0.009, H2O2 0.093 ± 0.004): 0.091 ± 0.014 |
| CC(=O)NC(CCCCN)C(=O)NC(CCC(=O)O)C(=O)NCCCCCCNC(=O)C(CCC(=O)O)NC(=O)C(CCCCN)NC(C)=O (stereo not drawn) [GK-4, bis-(N-acetyl-lysyl-glutamic acid) hexamethylenediamide] | no effect on Hsp32 |  | significant increase |  | protective effect | 20 μm | 65 μm | Max. length of cell processes, μm on day 6 ([2]; 10^−6M + NGF 30 ng/ml): 67 ± 4.5′ μm; Max. length of cell processes, μm on day 6 ([2]; 10^−6M + NGF 50 ng/ml): 73 ± 9.5′ μm; Max. length of cell processes, μm on day 6 ([2]; 10^−6M + NGF 100 ng/ml): 55 ± 11.3′ μm; Max. length of cell processes, μm on day 6 ([2]; 10^−7M + NGF 30 ng/ml): 52 ± 10.3′ μm; Max. length of cell processes, μm on day 6 ([2]; 10^−7M + NGF 50 ng/ml): 56 ± 13.2′ μm; Max. length of cell processes, μm on day 6 ([2]; 10^−7M + NGF 100 ng/ml): 65 ± 12.2′ μm; intercalary neurons in the differentiated cell population ([2]; GK-4 10^−7 M + NGF): 90%; protective effect against glutamate cytotoxicity [8]: protective effect |
| NCCCCCC(=O)NCC(=O)N[C@@H](CCCCN)C(N)=O [GK-5, N-(6-aminocaproyl)-glycyl-lysine amide] (H-[Ahx]-Gly-Lys-NH2) | increase in the synthesis of Hsp32 | improved the neuronal survival | no effect on Hsp70 | increased | inactive | not different | 55 μm | differentiation of PC-12 cells ([2]; peptide alone, 10^−8 to 10^−5 M, NGF 100 ng/ml as positive control): differentiation-promoting effect at 10^−6 M and 10^−5 M; Optical density (MTT) ([4]; Table 1.8, 10^−5M, control 0.097 ± 0.009, H2O2 0.056 ± 0.009): 0.065 ± 0.008; Optical density (MTT) ([4]; Table 1.8, 10^−6M, control 0.097 ± 0.009, H2O2 0.056 ± 0.009): 0.066 ± 0.008^; Optical density (MTT) ([4]; Table 1.8, 10^−7M, control 0.097 ± 0.009, H2O2 0.056 ± 0.009): 0.062 ± 0.009; Optical density (MTT) ([4]; Table 1.8, 10^−8M, control 0.097 ± 0.009, H2O2 0.056 ± 0.009): 0.058 ± 0.007 |
| NCCCCCC(=O)NCC(=O)N[C@@H](CCCCN)C(=O)NCCCCCCNC(=O)[C@H](CCCCN)NC(=O)CNC(=O)CCCCCN [GK-6, bis-(N-(6-aminocaproyl)glycyl-lysine) hexamethylenediamide] |  | improved the neuronal survival |  |  |  |  |  |  |
